Tests used:
Assay type in all cases: cell-based
CHAC1, NFYA and Cog5 = experiment: RT-PCR for splice variants of CHAC1, NFYA and Cog5 in MOLM16 cells; conditions: MOLM16, 1 μM, 6 hrs
Excerpt: (§1) Control=DMSO treated. […] Arrow indicate bands that change after AZD1208 treatment.
(§2) A few targets from the microarray data were chosen, that being, ones that were affected by PIM kinase inhibition. The procedure was manual curation of data, followed by reference seq analysis of splice variants to determine avalibilty of sequence information. Initially, changes in splice variants of a known apoptotic regulator, MCL1 were validated. The smaller isoform of MCL1 is pro-apototic, while the longer isoform has anti-apototic functions.

MOLM16 cells [1] = experiment: MTT assay (number of live cells), MOLM16 cells, single inhibitors and combination, Compusyn CI; conditions: 48 hours
Description: (§3) General experimental procedure: 10,000 (MOLM16) or 20,000 (EOL1) cells were seeded per well in 96-well plates. After culturing overnight, AZD1208 and/or Pladienolide B/SRPIN340 were added to wells in quadruplicates at 5 different concentrations. Different ratios between AZD1208 and Pladienolide B were tried in MOLM16 and EOL1 cells. At 48 hours the MTT metabolism indicative of number of live cells was measured by MTT assay (Promega, Cat: G4000). The resulting values were used to evaluate the Fa (fraction affected) values, which were plugged into the Compusyn software to calculate the combination indices (CI values) at ED50, ED75, ED90 and ED95 (ED—Effective dose of combination).
These values of drug dose and effect (fraction of cells affected by the treatment—FA values) were input into the Compusyn software to estimate the interaction between the two drugs.

[2] = tested on: SR protein phosphorylation; experiment: Western blot using phospho-SR protein antibody; conditions: MOLM16 and EOL1 cells, versus DMSO treated controls
Description: MOLM16 and EOL1 cells were treated with AZD1208 or SRPIN340 for indicated concentration and time. Cells lysates from treated cells were used for western blot analysis.
Phosphorylation of splicing factors is known to play a role in regulation of splicing. Phosphorylation of splicing factors called serine arginine rich proteins (SR proteins) is known to regulate their function and localization. Serine arginine rich protein kinases (SRPK1 and SRPK2) phosphorylate these proteins and inhibition of SRPK activity using the small molecule modulator SRPIN340 leads to reduction in phosphorylation. The level of SR protein phosphorylation can be visualized using phospho-SR protein antibody. It was investigated to determine if PIM kinases regulate SRPK activity to indirectly lead to changes in splicing. […] Thus, it was concluded that the SRPK activity was not affected by PIM kinase inhibition.

EOL1 cells [3] = experiment: MTT assay (number of live cells), EOL1 cells, single inhibitors and combination, Compusyn CI; conditions: 48 hours
Description: as §3
To further confirm the finding in MOLM16 cells, it was tested whether the combination of AZD1208 and Pladienolide B is synergistic in another AML cell line—EOL1. Different ratios between AZD1208 and Pladienolide B were tested to identify the ideal ratio that provides maximum synergy.

MCL1 splice variants [4] = experiment: Taqman qRT-PCR for MCL1 splice variants in MOLM16 cells; conditions: MOLM16, 1 μM, 6 hrs
Excerpt: as §1, §2

MCL1 splice variants [5] = experiment: Taqman qRT-PCR for MCL1 splice variants in OCI-M1 cells; conditions: 1 μM, 6 hrs
Excerpt: as §1, §2

EOL1 cells [6] = experiment: Microarray (Affymetrix HTA 2.0) profiling of alternative splicing changes in EOL1 cells
Description: Due to the large number of splicing factors as PIM substrates, a more globally spread regulation of splicing by PIM kinases was envisioned. As such, a microarray approach was chosen to profile the entire transcriptome for changes in alternative splicing, due to inhibition of PIM kinase activity. MOLM16 cells were treated with DMSO/AZD1208 (1 μM) (pan-PIM inhibitor) for 6 hours. This experiment was performed in triplicates and RNA was run on a bioanalyzer to confirm sample intergrity, as outline in FIG. 3. A similar procedure was used for analysis of both MOLM16 and EOL1 cells. After 1 μM AZD1208 treatment for 6 hours, cells were harvested, and total RNA was isolated. The RNA quality was confirmed using a bio-analyzer. High quality RNA samples were further processed and hybridized to Affymetrix HTA 2.0 microarrays. The results obtained were processed using Affymetrix expression console and transcriptome analysis console (TAC) software. […] Similar experiment was also performed for EOL1 cells. […] Each point represents a unique probe selection region and the splicing index values for MOLM16 (X axis) and EOL1 cells (Y axis) are shown. All the points in +X+Y and −X−Y quadrants are splicing changes consistent with directionality of the change. […] Microsoft Excel functions were used to identify the overlap between these lists of splicing changes. […] When the directionality of these changes was considered, it was noted that most of these changes were also consistantly in the same direction (all but 39 out of 2599).

MOLM16 cells [7] = experiment: Microarray (Affymetrix HTA 2.0) profiling of alternative splicing changes in MOLM16 cells; conditions: MOLM16, 1 μM, 6 hours
Description: Due to the large number of splicing factors as PIM substrates, a more globally spread regulation of splicing by PIM kinases was envisioned. As such, a microarray approach was chosen to profile the entire transcriptome for changes in alternative splicing, due to inhibition of PIM kinase activity. MOLM16 cells were treated with DMSO/AZD1208 (1 μM) (pan-PIM inhibitor) for 6 hours. This experiment was performed in triplicates and RNA was run on a bioanalyzer to confirm sample intergrity, as outline in FIG. 3. A similar procedure was used for analysis of both MOLM16 and EOL1 cells. After 1 μM AZD1208 treatment for 6 hours, cells were harvested, and total RNA was isolated. The RNA quality was confirmed using a bio-analyzer. High quality RNA samples were further processed and hybridized to Affymetrix HTA 2.0 microarrays. The results obtained were processed using Affymetrix expression console and transcriptome analysis console (TAC) software. […] Similar experiment was also performed for EOL1 cells. […] Each point represents a unique probe selection region and the splicing index values for MOLM16 (X axis) and EOL1 cells (Y axis) are shown. All the points in +X+Y and −X−Y quadrants are splicing changes consistent with directionality of the change. […] Microsoft Excel functions were used to identify the overlap between these lists of splicing changes. […]

## N[C@@H]1CCCN(c2c(/C=C3/SC(=O)NC3=O)cccc2-c2ccccc2)C1 [AZD1208, (5E)-5-[[2-[(3R)-3-aminopiperidin-1-yl]-3-phenylphenyl]methylidene]-1,3-thiazolidine-2,4-dione]
CHAC1, NFYA and Cog5
  changes in splice variants of CHAC1, NFYA and Cog5: in agreement with the microarray data
MOLM16 cells [1]; MOLM16, SRPIN340 testing Trial 1, 0.03 μM
  Effect (fraction of cells affected, FA): 0.396
MOLM16 cells [1]; MOLM16, SRPIN340 testing Trial 1, 0.06 μM
  Effect (fraction of cells affected, FA): 0.521
MOLM16 cells [1]; MOLM16, SRPIN340 testing Trial 1, 0.12 μM
  Effect (fraction of cells affected, FA): 0.628
MOLM16 cells [1]; MOLM16, Trial 1, 0.024 μM
  Effect (fraction of cells affected, FA): 0.415
MOLM16 cells [1]; MOLM16, Trial 1, 0.048 μM
  Effect (fraction of cells affected, FA): 0.471
MOLM16 cells [1]; MOLM16, Trial 1, 0.072 μM
  Effect (fraction of cells affected, FA): 0.564
MOLM16 cells [1]; MOLM16, Trial 1, 0.096 μM
  Effect (fraction of cells affected, FA): 0.594
MOLM16 cells [1]; MOLM16, Trial 1, 0.12 μM
  Effect (fraction of cells affected, FA): 0.614
MOLM16 cells [1]; MOLM16, Trial 2, 0.024 μM
  Effect (fraction of cells affected, FA): 0.337
MOLM16 cells [1]; MOLM16, Trial 2, 0.048 μM
  Effect (fraction of cells affected, FA): 0.478
MOLM16 cells [1]; MOLM16, Trial 2, 0.072 μM
  Effect (fraction of cells affected, FA): 0.534
MOLM16 cells [1]; MOLM16, Trial 2, 0.096 μM
  Effect (fraction of cells affected, FA): 0.566
MOLM16 cells [1]; MOLM16, Trial 2, 0.12 μM
  Effect (fraction of cells affected, FA): 0.622
MOLM16 cells [1]; MOLM16, Trial 3, 0.024 μM
  Effect (fraction of cells affected, FA): 0.344
MOLM16 cells [1]; MOLM16, Trial 3, 0.048 μM
  Effect (fraction of cells affected, FA): 0.455
MOLM16 cells [1]; MOLM16, Trial 3, 0.072 μM
  Effect (fraction of cells affected, FA): 0.524
MOLM16 cells [1]; MOLM16, Trial 3, 0.096 μM
  Effect (fraction of cells affected, FA): 0.554
MOLM16 cells [1]; MOLM16, Trial 3, 0.12 μM
  Effect (fraction of cells affected, FA): 0.606
[2]
  SR protein phosphorylation: does not change SR protein phosphorylation
EOL1 cells [3]; EOL1, Trial 1, 0.024 μM
  Effect (fraction of cells affected, FA): 0.395
EOL1 cells [3]; EOL1, Trial 1, 0.048 μM
  Effect (fraction of cells affected, FA): 0.529
EOL1 cells [3]; EOL1, Trial 1, 0.072 μM
  Effect (fraction of cells affected, FA): 0.675
EOL1 cells [3]; EOL1, Trial 1, 0.096 μM
  Effect (fraction of cells affected, FA): 0.684
EOL1 cells [3]; EOL1, Trial 1, 0.12 μM
  Effect (fraction of cells affected, FA): 0.680
EOL1 cells [3]; EOL1, Trial 2, 0.024 μM
  Effect (fraction of cells affected, FA): 0.432
EOL1 cells [3]; EOL1, Trial 2, 0.048 μM
  Effect (fraction of cells affected, FA): 0.587
EOL1 cells [3]; EOL1, Trial 2, 0.072 μM
  Effect (fraction of cells affected, FA): 0.650
EOL1 cells [3]; EOL1, Trial 2, 0.096 μM
  Effect (fraction of cells affected, FA): 0.683
EOL1 cells [3]; EOL1, Trial 2, 0.12 μM
  Effect (fraction of cells affected, FA): 0.698
EOL1 cells [3]; EOL1, Trial 3, 0.024 μM
  Effect (fraction of cells affected, FA): 0.373
EOL1 cells [3]; EOL1, Trial 3, 0.048 μM
  Effect (fraction of cells affected, FA): 0.523
EOL1 cells [3]; EOL1, Trial 3, 0.072 μM
  Effect (fraction of cells affected, FA): 0.600
EOL1 cells [3]; EOL1, Trial 3, 0.096 μM
  Effect (fraction of cells affected, FA): 0.633
EOL1 cells [3]; EOL1, Trial 3, 0.12 μM
  Effect (fraction of cells affected, FA): 0.642
MCL1 splice variants [4]
  level of shorter isoform of MCL1: specifically and significantly reduces
MCL1 splice variants [5]
  level of both MCL1 splice variants: did not show any change
EOL1 cells [6]; EOL1, 1 μM, 6 hrs.
  changes in splicing after PIM kinase inhibition: widespread changes were observed in splicing
EOL1 cells [6]; out of 2599 changes shared by MOLM16 and EOL1, 1 μM, 6 hours
  overlapping splicing changes not in the same direction: 39
EOL1 cells [6]; overlap between MOLM16 and EOL1 lists, 1 μM, 6 hours
  splicing changes observed in similar probe selection regions: 2599
MOLM16 cells [7]
  gene products with changes in splicing indices: > 5000
  splicing events with changes in splicing indices: > 10,000

Source: patent US10842785B2, “PIM kinase inhibitors in combination with RNA splicing modulators/inhibitors for treatment of cancers” (UNIVERSITY OF MARYLAND, BALTIMORE COUNTY, priority 2016, dated 2020)
